Data as given in patent US12419869B2, “Methods of treating multiple sclerosis” (Vanda Pharmaceuticals Inc., priority 2021, dated 2025).

Columns and labels:
pregnant rabbits = experiment: Dose-range finding study in pregnant rabbits, oral; type: in vivo, rabbit; conditions: 0, 6, 20, or 60 mg/kg/day; at lowest dose tested
From the text: No maternal toxicity was observed.

[1] = Coadministration with oral hormonal contraceptive; type: in vivo, human; conditions: 1 mg norethisterone/norethindrone and 35 μg ethinyl estradiol
From the text: Therefore, concomitant use of ponesimod is not expected to decrease the efficacy of hormonal contraceptives. No interaction studies have been performed with oral contraceptives containing other progestogens: however, an effect of ponesimod on their exposure is not expected.

[2] = Pharmacokinetics in hepatic impairment (Child-Pugh class A, B, C); type: in vivo, human
in vitro = in vitro ADME; conditions: human, plasma
From the text: (§1) Ponesimod is highly bound to plasma proteins (>99%) and is mainly (78.5%) distributed in the plasma fraction of whole blood.

plasma proteins = experiment: in vitro; type: in vitro ADME
From the text: as §1

[3] = Animal studies of blood-brain-barrier passage; type: in vivo
From the text: as §1

[4] = tested on: peripheral blood lymphocyte count; experiment: Peripheral blood lymphocyte count in healthy volunteers; type: in vivo, human
Experimental: In healthy volunteers, PONVORY induces a dose-dependent reduction of the peripheral blood lymphocyte count from a single dose of 5 mg onwards, with the greatest reduction observed 6 hours post-dose, caused by reversible sequestration of lymphocytes in lymphoid tissues. After 7 daily doses of 20 mg, the greatest decrease in absolute mean lymphocyte count was to 26% of baseline (650 cells/μL), observed 6 hours after administration. Peripheral blood B cells [CD19+] and T cells [CD3+], T-helper [CD3+CD4+], and T-cytotoxic [CD3+CD8+] cell subsets are all affected, while NK cells are not. T-helper cells were more sensitive to the effects of ponesimod than T-cytotoxic cells.

clinical = conditions: human, in vivo
Experimental: Steady-state levels are approximately 2.0 to 2.6-fold greater than with a single dose, and are achieved following 3 days of administration of the maintenance dose of ponesimod.
The pharmacokinetics of ponesimod are similar in healthy subjects and patients with multiple sclerosis, with 25% inter-subject variability across studies.
The time to reach maximum plasma concentration of ponesimod is 2-4 hours post-dose.
Following IV administration in healthy subjects, the steady-state volume of distribution of ponesimod is 160 L.

rat = experiment: Micronucleus in rat; conditions: in vivo
From the text: (§2) Ponesimod was negative in a battery of in vitro (Ames, chromosomal aberration in mammalian cells) and in vivo (micronucleus in rat) assays.

[5] = tested on: adult subjects with relapsing MS; experiment: 12-lead ECG heart rate and AV conduction at treatment initiation (Day 1, ponesimod 2 mg); type: in vivo, human
Experimental: As per up-titration regimen, the dose of ponesimod on Day 1 is 2 mg.
The incidence of treatment-emergent heart rate and rhythm (including hypotension) AESIs on Day 1 was higher in the ponesimod 20 mg arm (2.1%) than in the teriflunomide 14 mg arm (0.4%). However, the overall incidence of first dose AESI on Day 1 was low (2.1%) in ponesimod. None of these events were serious nor led to permanent discontinuation of study treatment. Discharge criteria at 4 hours post-dose were met for ca. 99% of subjects. […] ECG HR effect: nadir at 2 hours post-dose (siponimod—3-4 hours, fingolimod—around by 6 hours). Low incidence of low HR outliers (post-dose HR 40 bpm), all 3 of them with a pre-treatment HR of <55 bpm, which is a known risk factor for post-dose bradycardia with SIP receptor modulators.
The mean heart rate reduction compared to pre-dose reached a maximum for ponesimod 20 mg at 2-hours post dose, −8.7 bpm compared to −1.7 bpm for teriflunomide 14 mg (FIG. 6).
Initiation of PONVORY may result in a transient decrease in HR. In Study 1, bradycardia at treatment initiation and sinus bradycardia on ECG (defined as HR less than 50 bpm) occurred in 5.8% of PONVORY-treated patients compared to 1.6% of patients receiving teriflunomide 14 mg. After the first titration dose of PONVORY, the decrease in heart rate typically begins within an hour and reaches its nadir within 2-4 hours. The heart rate typically recovers to baseline levels 4-5 hours after administration. The mean decrease in heart rate on Day 1 of dosing was 6 bpm. With up-titration after Day 1, the post-dose decrease in heart rate is less pronounced. […] On Day 1, 3 patients treated with PONVORY had asymptomatic post-dose HR below or equal to 40 bpm; all 3 patients had baseline HRs below 55 bpm.

[6] = tested on: adult subjects with relapsing MS; experiment: Blood pressure, Study 1; type: in vivo, human; conditions: for Average increase in diastolic blood pressure / Average increase in systolic blood pressure: Study 1
Experimental: An increase in blood pressure with PONVORY was first detected after approximately 1 month of treatment initiation and persisted with continued treatment. Hypertensive events were reported as an adverse reaction in 10.1% of PONVORY-treated patients and in 9.0% of patients receiving teriflunomide 14 mg. One patient treated with PONVORY experienced a hypertensive crisis but had evidence of longstanding hypertensive heart disease. Blood pressure should be monitored during treatment with PONVORY and managed appropriately.

[7] = tested on: CYP or UGT enzymes, or transporters; experiment: In vitro investigations of drug-drug interaction potential; type: in vitro ADME; conditions: at recommended dose of 20 mg once-daily
mammalian cells = experiment: Chromosomal aberration in mammalian cells; type: cell-based; conditions: in vitro
From the text: as §2

Ames assay = type: cell-based; conditions: in vitro
From the text: as §2

With `CCC/N=C1\S/C(=C\c2ccc(OC[C@H](O)CO)c(Cl)c2)C(=O)N1c1ccccc1C` [Ponesimod, (R)-5-[3-chloro-4-(2,3-dihydroxy-propoxy)-benz[Z]ylidene]-2-([Z]-propylimino)-3-o-tolyl-thiazolidin-4-one] the “Findings in dose-range finding study in pregnant rabbits” value (pregnant rabbits) was “an increase in embryofetal death and fetal limb malformation”, the “Pharmacokinetic interaction with oral hormonal contraceptive” value [1] was “no clinically relevant pharmacokinetic interaction” and the “Increase of AUC0-∞ vs healthy subjects” value ([2]; mild hepatic impairment (Child-Pugh A)) was 1.3 fold. For the same compound, the “Change in Cmax vs healthy subjects” value ([2]; mild, moderate, or severe hepatic impairment) was “no change”, the “Increase of AUC0-∞ vs healthy subjects” value ([2]; moderate hepatic impairment (Child-Pugh B)) was 2.0 fold and the “Increase of AUC0-∞ vs healthy subjects” value ([2]; severe hepatic impairment (Child-Pugh C)) was 3.1 fold. For the same compound, the fraction unbound (in vitro) was < 0.01, the “Distribution in the plasma fraction of whole blood” value (plasma proteins) was 78.5% and the Plasma protein binding (plasma proteins; human, plasma) was “greater than 99%”. The Blood-brain-barrier passage [3] was “readily crosses the blood-brain-barrier”, the “Absolute mean lymphocyte count at greatest decrease” value ([4]; after 7 daily doses of 20 mg) was 650 cells/μL and the “Greatest decrease in absolute mean lymphocyte count, % of baseline” value ([4]; after 7 daily doses of 20 mg, 6 hours after administration) was 26 % of baseline. The “Time of greatest reduction of peripheral blood lymphocyte count” value ([4]; post-dose, healthy volunteers) was 6 h, the “Effect of food on pharmacokinetics” value (clinical) was “does not have a clinically relevant effect” and the “Influence of age (range: 17 to 65 years) on PK” value (clinical) was “not identified to significantly influence”. For the same compound, the “Influence of gender on pharmacokinetics” value (clinical) was “no clinically significant influence”, the “Inter-subject variability of pharmacokinetics across studies” value (clinical) was 25% and the “Pharmacokinetic differences between Japanese and Caucasian subjects” value (clinical) was “No clinically relevant pharmacokinetic differences”. The “Time to steady state on maintenance dose” value (clinical) was 3 days, the clearance (clinical; iv) was 63.3 mL/min and the “Increase of Cmax and AUC with dose” value (clinical; po) was “approximately dose-proportionally”. The “Steady-state levels relative to a single dose” value (clinical; po) was 2.0-2.6 fold, the “Time to reach maximum plasma concentration” value (clinical; po) was 2 to 4 h and the half-life (clinical; po) was ~33 h. The bioavailability (clinical; po, 10 mg) was 84%, the “Micronucleus in rat result” value (rat) was “negative” and the “Mean heart rate change compared to pre-dose at 2 hours post dose (maximum)” value ([5]; Day 1) was −8.7 bpm. For the same compound, the “Subjects meeting discharge criteria at 4 hours post-dose” value ([5]; Day 1) was “ca. 99%”, the “Subjects with asymptomatic post-dose HR ≤40 bpm” value ([5]; Day 1) was 3 and the “Time for heart rate to recover to baseline / pre-dose values” ([5]; Day 1) was 4 to 5 h. The “ECG HR effect: time of nadir post-dose” value ([5]; Day 1, 2 mg) was 2 h, the “Bradycardia at treatment initiation and sinus bradycardia on ECG (HR less than 50 bpm)” value ([5]; Study 1) was 5.8% and the “First-degree AV block (prolonged PR interval on ECG)” value ([5]; Study 1) was 3.4%. The “Mean decrease in heart rate on Day 1 of dosing” value ([5]; Study 1) was 6 bpm, the “Second- and third-degree AV blocks” value ([5]; Study 1) was “not reported” and the “Time to heart rate nadir / maximal effect after first dose” value ([5]; post-dose) was 2 to 4 h. The “Average increase in diastolic blood pressure” value [6] was 2.8 mm Hg, the “Average increase in systolic blood pressure” value [6] was 2.9 mm Hg and the “Time after treatment initiation at which blood pressure increase was first detected” value ([6]; in vivo) was “approximately 1 month”. For the same compound, the “Drug-drug interaction potential for CYP or UGT enzymes, or transporters” value [7] was “do not show any clinically relevant drug-drug interaction potential”, the “Chromosomal aberration in mammalian cells result” value (mammalian cells) was “negative” and the Ames assay result (Ames assay) was “negative”.

For `C/C(O)=C(\C#N)C(=O)Nc1ccc(C(F)(F)F)cc1` [Teriflunomide, reference compound], the “Mean heart rate change compared to pre-dose at 2 hours post dose (maximum)” value ([5]; Day 1) was −1.7 bpm, the “Subjects with asymptomatic post-dose HR ≤40 bpm” value ([5]; Day 1) was “none” and the “Bradycardia at treatment initiation and sinus bradycardia on ECG (HR less than 50 bpm)” value ([5]; Study 1) was 1.6%. The “First-degree AV block (prolonged PR interval on ECG)” value ([5]; Study 1) was 1.2%, the “Average increase in diastolic blood pressure” value [6] was 3.1 mm Hg and the “Average increase in systolic blood pressure” value [6] was 2.8 mm Hg.
